Assay results from patent publication EP4722201A1, “3-PHENYLISOXAZOLINE-5-CARBOXAMIDE COMPOUND, AND PREPARATION METHOD THEREFOR, HERBICIDAL COMPOSITION THEREOF AND USE THEREOF” (Jiangsu Flag Chemical Industry Co., Ltd, priority 2023, dated 2024).

Assays:
Assay in all cases: Indoor herbicide activity determination, Seed Treatment; pre-emergence (soil spray)
Type in all cases: in vivo
[1] = tested on: Aegilops tauschii; conditions: read-out: Herbicidal activities (inhibition rate) Aegilops tauschii; for inhibition at 120 g/ha: 120 g a.i./ha
Method in brief: (§1)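 Herbicide was applied to soil before weed emergence, 24 h after sowing, by tower spraying. Plants grew at constant temperature with illumination, and fresh weight compared with untreated pots gave % inhibition after 21 days.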

[2] = tested on: Lolium multiflorum
Method in brief: as §1

[3] = tested on: Alopecurus myosuroides
Method in brief: as §1

[4] = tested on: Alopecurus japonicus
Method in brief: as §1

[5] = tested on: Eclipta prostrata; conditions: 120 g a.i./ha, read-out: Herbicidal activities (inhibition rate) Eclipta prostrata
Method in brief: as §1

[6] = tested on: Cyperus iria; conditions: read-out: Herbicidal activities (inhibition rate) Cyperus iria; for inhibition at 120 g/ha: 120 g a.i./ha
Method in brief: as §1

[7] = tested on: Leptochloa chinensis
Method in brief: as §1

[8] = tested on: Digitaria sanguinalis; conditions: read-out: Herbicidal activities (inhibition rate) Digitaria sanguinalis; for inhibition at 120 g/ha: 120 g a.i./ha
Method in brief: as §1

[9] = tested on: Eleusine indica
Method in brief: as §1

| SMILES | inhibition at 120 g/ha [1] | Herbicidal activities, Lolium multiflorum (inhibition rate class) ([2]; Dosage 240 g a.i./ha) | Herbicidal activities, Alopecurus myosuroides (inhibition rate class) ([3]; Dosage 240 g a.i./ha) | Herbicidal activities, Alopecurus japonicus (inhibition rate class) ([4]; Dosage 240 g a.i./ha) | inhibition at 120 g/ha [5] | inhibition at 120 g/ha [6] | Herbicidal activities, Leptochloa chinensis (inhibition rate class) ([7]; Dosage 240 g a.i./ha) | inhibition at 120 g/ha [8] | also measured |
| --- | --- | --- | --- | --- | --- | --- | --- | --- | --- |
| COC(=O)C1CC(NC(=O)C2(C(F)(F)F)CC(c3cc(F)cc(C(F)(F)F)c3)=NO2)CO1 (centres unmarked) [I-392] | 80 to 100% | A (A indicates that the inhibition rate was greater than or equal to 80% to 100%) | A (A indicates that the inhibition rate was greater than or equal to 80% to 100%) | A (A indicates that the inhibition rate was greater than or equal to 80% to 100%) | 60 to 80% | 60 to 80% | A (A indicates that the inhibition rate was greater than or equal to 80% to 100%) | 80 to 100% | – |
| COC(=O)C1CC(NC(=O)C2(C(F)(F)F)CC(c3cc(Cl)cc(OC(F)(F)F)c3)=NO2)CO1 (centres unmarked) [I-400] | 80 to 100% | – | A (A indicates that the inhibition rate was greater than or equal to 80% to 100%) | – | 80 to 100% | 60 to 80% | A (A indicates that the inhibition rate was greater than or equal to 80% to 100%) | 80 to 100% | – |
| O=C(O)C1CC(NC(=O)C2(C(F)(F)F)CC(c3cc(Cl)cc(OC(F)F)c3)=NO2)CO1 (centres unmarked) [I-395] | 60 to 80% | A (A indicates that the inhibition rate was greater than or equal to 80% to 100%) | A (A indicates that the inhibition rate was greater than or equal to 80% to 100%) | – | 60 to 80% | 60 to 80% | A (A indicates that the inhibition rate was greater than or equal to 80% to 100%) | 60 to 80% | – |
| C=C[C@]1(C(=O)N[C@H]2C[C@@H](C(=O)O[C@H](C)COC)C2)CC(c2cc(F)cc(F)c2)=NO1 [I-19] | – | – | – | – | – | – | – | – | inhibition at 60 g/ha ([1]; 60 g a.i./ha): 80 to 100%; Herbicidal activities, Lolium multiflorum (inhibition rate class) ([2]; Dosage 120 g a.i./ha): A (A indicates that the inhibition rate was greater than or equal to 80% to 100%); Herbicidal activities, Alopecurus myosuroides (inhibition rate class) ([3]; Dosage 120 g a.i./ha): A (A indicates that the inhibition rate was greater than or equal to 80% to 100%); Herbicidal activities, Alopecurus japonicus (inhibition rate class) ([4]; Dosage 120 g a.i./ha): A (A indicates that the inhibition rate was greater than or equal to 80% to 100%); inhibition at 60 g/ha ([6]; 60 g a.i./ha): 60 to 80%; Herbicidal activities, Leptochloa chinensis (inhibition rate class) ([7]; Dosage 120 g a.i./ha): A (A indicates that the inhibition rate was greater than or equal to 80% to 100%); inhibition at 60 g/ha ([8]; 60 g a.i./ha): 80 to 100%; Herbicidal activities, Eleusine indica (inhibition rate class) ([9]; Dosage 120 g a.i./ha): A (A indicates that the inhibition rate was greater than or equal to 80% to 100%) |
| COC(=O)C1CC(NC(=O)C2(C(F)(F)F)CC(c3cc(F)cc(OC(F)F)c3)=NO2)CO1 (centres unmarked) [I-394] | 80 to 100% | A (A indicates that the inhibition rate was greater than or equal to 80% to 100%) | A (A indicates that the inhibition rate was greater than or equal to 80% to 100%) | A (A indicates that the inhibition rate was greater than or equal to 80% to 100%) | 60 to 80% | – | A (A indicates that the inhibition rate was greater than or equal to 80% to 100%) | 60 to 80% | – |
| COC(=O)[C@@H]1C=C[C@H](NC(=O)C2(C)CC(c3cc(F)cc(OC(F)(F)F)c3)=NO2)C1 (some centres unmarked) [I-489] | 80 to 100% | – | – | – | – | 80 to 100% | – | 60 to 80% | Herbicidal activity (inhibition rate class), Lolium multiflorum ([2]; Dosage 240 g a.i./ha): A (A indicates that the inhibition rate was greater than or equal to 80% to 100%); Herbicidal activity (inhibition rate class), Alopecurus myosuroides ([3]; Dosage 240 g a.i./ha): A (A indicates that the inhibition rate was greater than or equal to 80% to 100%); Herbicidal activity (inhibition rate class), Alopecurus japonicus ([4]; Dosage 240 g a.i./ha): A (A indicates that the inhibition rate was greater than or equal to 80% to 100%); Herbicidal activity (inhibition rate class), Leptochloa chinensis ([7]; Dosage 240 g a.i./ha): A (A indicates that the inhibition rate was greater than or equal to 80% to 100%); Herbicidal activity (inhibition rate class), Eleusine indica ([9]; Dosage 240 g a.i./ha): A (A indicates that the inhibition rate was greater than or equal to 80% to 100%) |
